{"source": "patent US8557565B2", "about": "“Degradation of polycyclic aromatic hydrocarbons to render them available for biodegradation” (priority 1999, dated 2013)", "key": {"[1]": {"assay": "Solubility and stability of O3 in aqueous and organic solvents", "assay_type": "physicochemical", "settings": "bipolar solvent versus water or heptane alone", "procedure": "The amount of oil to be employed in the bipolar solution was determined by its solubility in n-heptane and bipolar solvent. With an addition of 2.5 ml of distilled deionized water (about 5%) to a homogenous solution 50 ml of n-heptane and 50 ml of acetic acid, the solution was separated into two distinct phases: the n-heptane containing PAHs and other hydrophobic intermediates, and acetic acid phase (95% of acetic acid/5% DD water) containing the hydrophilic byproducts. In this example, about 480 mg/L of oil in the bipolar solvent was ozonated for different durations and the solution contents were analyzed accordingly. Both byproducts in the n-heptane phase and in the 95% acetic acid phase were analyzed by GC/FID, GC/FPD, and GC/MS after the separation. Ozone stability in different solvents: bipolar solvent, n-heptane, 95% acetic acid/5% DD water, and pure acetic acid were also tested by stopping after 20 minutes of ozonation and monitoring the ozone concentration immediately after.\nOzone was generated by an ozone generator (Model T-816, Polymetrics Corp.) from dry and filtered air at an applied voltage of 65V an air flow rate of 2 L/min. The concentration of ozone in the bipolar solvent was determined by absorbance at 270 nm with a spectrophotometer (HP 8452 UV-Vis spectrophotometer, Hewlett Packard Co.) using a predetermined extinction coefficient of 1955 M^−1 cm^−1. […]"}, "[2]": {"assay": "Ozonation reaction kinetics of spilt oil constituents in bipolar solvent", "assay_type": "physicochemical", "settings": "for tentative estimated pseudo-first-order rate constant k′: ozonation of spilt oil (480 mg/L) in n-heptane/acetic acid 1:1 bipolar solvent, about 20° C.; for behaviour under ozonation in the bipolar solvent: spilt oil constituents", "description": "In this work example, an innovative treatment is developed for spilt oils from southern Kuwait desert that involves ozonation in a homogeneous solvent system. The solvent is constituted of miscible n-heptane and acetic acid (1:1 by volume), both of that are relatively inexpensive, environmentally benign, and biodegradable. The solvent system allows dissolution of oil in its non-polar heptane constituent, while the hydrophilic acetic acid keeps the progressively more polar intermediates and byproducts being formed from ozonation of oil in solution as the reaction continues. The n-heptane and acetic acid were chosen because of their relatively slow reaction rate with ozone (kO3[M^−1 s^−1] about 10^−3˜1 for alkanes and 3×10^−5 for acetic acid.\nThe amount of oil to be employed in the bipolar solution was determined by its solubility in n-heptane and bipolar solvent.\nThe pseudo-first order rate constants were evaluated by linear regression of all data according to the equations given below. The reaction of ozone with contaminants can be expressed as a second order reaction: −dCA/dt=kCA[O3] (1) where: dCA/dt=rate of reaction of contaminant k=reaction rate constant CA=concentration of contaminant [O3]=concentration of ozone\nIn the present of excess and constant ozone concentration, the rate law for the reaction can be considered as pseudo-first order: −dCA/dt=k′CA (2)\nA glass batch reactor with a working volume of 300 mL was used. Mixing in the reactor was provided by a magnetic mixer operating at 250 rpm. […] Ozone was sparged into the reactor near the bottom through a glass dispersion tube (ACE glass Inc.) Reaction batches were stopped after 0.25, 0.5, 1, 2, 3, 4, 5, 10, 20, 40, 60, 120, and 180 minutes of ozonation. Residual ozone was removed from solution by purging with a gentle N2 stream for 1 min. Samples were kept in 2-mL vials and preserved at 5° C. if necessary prior to GC analysis. Qualitative and quantitative analyses of oil and oxidized oil were performed simultaneously. All samples were concentrated by a gentle stream of N2 gas to best retain the intermediates with lower molecular weights."}, "[3]": {"assay": "Mass and COD balance of PAH-packed column fed with ozonated water", "settings": "pyrene-loaded column, 4 h ozonation"}, "[4]": {"assay": "Saturated aqueous solution (dissolution equilibrium in water)", "settings": "equilibrium overnight, 0.45-μm filtered"}}, "data": [{"smiles": "O=[O+][O-]", "note": "[Ozone]", "values": [{"measurement": "solubility and stability of O3", "setting": "[1]", "result": "higher solubility and stability"}]}, {"smiles": "CCC(C)CCCC(C)CCCC(C)CCCC(C)C", "note": "(stereo not drawn) [Phytane]", "values": [{"measurement": "tentative estimated pseudo-first-order rate constant k′", "setting": "[2]", "result": 0.0178, "unit": "s⁻¹"}, {"measurement": "tentative estimated pseudo-first-order rate constant k′", "setting": "[2]; listed as phytane", "result": 0.0178, "unit": "s⁻¹"}, {"measurement": "behaviour under ozonation in the bipolar solvent", "setting": "[2]", "result": "relatively resistant to ozonation"}]}, {"smiles": "c1cc2ccc3cccc4ccc(c1)c2c34", "note": "[Pyrene]", "values": [{"measurement": "total amount degraded", "setting": "[3]", "result": 0.365, "unit": "mmol"}, {"measurement": "saturated aqueous solution concentration", "setting": "[4]", "result": 0.13, "unit": "ppm"}]}, {"smiles": "CCCCCCCCCCCCCCCCCCCC", "note": "[nC20, Icosane]", "values": [{"measurement": "tentative estimated pseudo-first-order rate constant k′", "setting": "[2]", "result": 0.00198, "unit": "s⁻¹"}, {"measurement": "tentative estimated pseudo-first-order rate constant k′", "setting": "[2]; listed as n-icosane", "result": 0.00198, "unit": "s⁻¹"}, {"measurement": "behaviour under ozonation in the bipolar solvent", "setting": "[2]", "result": "relatively resistant to ozonation"}]}]}
